Test results as given in the supplement of paper PMC11451515.

How the values were obtained:
Conditions in all cases: 48 h
NOMO1 [1] = assay: AUC of viability dose-response curve (% viability x log10 dose units); higher = less sensitive
In short: (§1)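 Over 48 h at 37°C, leukemia cells in 1536-well plates (500 or 1000 cells/well), adapted to each medium, received library compounds in DMSO at 11 threefold doses from 47 μM to 0.79 nM. CellTiter-Glo One luminescence, normalised per plate to DMSO and cell-free wells, was fitted by a four-parameter log-logistic function of log10 dose. The area under the curve was then integrated by trapezoidal rule, after scaling curves above full viability and removing those that failed quality control.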

P12-Ichikawa [2] = assay: as above
In short: as §1

SEM cells [3] = assay: as above
In short: as §1

NOMO1 [4] = assay: cell viability relative to DMSO control; higher = less cytotoxic
In short: (§2)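 Viability is a per-plate percentage relative to DMSO wells, with cell-free wells as background. CellTiter-Glo One luminescence was read after 48 h at 37°C on 1536-well plates (5 μl) of NOMO1 or SEM (500 cells/well) or P12-Ichikawa (1000 cells/well) leukemia cells. The cells had been adapted for at least four passages in each medium and pin-dosed with library compounds in DMSO from 47 μM to 0.79 nM in 11 threefold steps.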

SEM cells [5] = assay: as above
In short: as §2

P12-Ichikawa [6] = assay: as above
In short: as §2

COc1cc(C)c(/C=C/C(C)=C/C=C/C(C)=C/C(=O)O)c(C)c1C
AUC of viability dose-response curve
Conditions	NOMO1 [1]	P12-Ichikawa [2]	SEM cells [3]
HPLM + 10% dialyzed FBS	442	458	450
RPMI 5 mM glucose + 10% FBS	441	441	426
RPMI 5 mM glucose + 10% dialyzed FBS	420	455	450

CO[C@H]1/C=C/O[C@@]2(C)Oc3c(C)c(O)c4c(c3C2=O)C2=NC3(CCN(CC(C)C)CC3)NC2=C(NC(=O)/C(C)=C/C=C/[C@H](C)[C@H](O)[C@@H](C)[C@@H](O)[C@@H](C)[C@H](OC(C)=O)[C@@H]1C)C4=O
cell viability [%]
Conditions	HPLM + 10% dialyzed FBS	RPMI 5 mM glucose + 10% FBS	RPMI 5 mM glucose + 10% dialyzed FBS
NOMO1 [4], 0.000781 µM	117	–	–
NOMO1 [4], 0.00234 µM	111	–	–
NOMO1 [4], 0.00702 µM	146	–	–
NOMO1 [4], 0.0211 µM	135	–	–
NOMO1 [4], 0.0632 µM	132	–	–
NOMO1 [4], 0.19 µM	127	–	–
NOMO1 [4], 0.569 µM	138	–	–
NOMO1 [4], 1.71 µM	137	–	–
NOMO1 [4], 5.12 µM	127	–	–
NOMO1 [4], 15.4 µM	113	–	–
NOMO1 [4], 46.1 µM	117	–	–
SEM cells [5], 0.000781 µM	92.6	116	110
SEM cells [5], 0.00234 µM	80.4	114	100
SEM cells [5], 0.00702 µM	103	133	118
SEM cells [5], 0.0211 µM	109	133	117
SEM cells [5], 0.0632 µM	122	153	135
SEM cells [5], 0.19 µM	118	144	122
SEM cells [5], 0.569 µM	123	135	130
SEM cells [5], 1.71 µM	17.8	10.7	26.7
SEM cells [5], 5.12 µM	122	152	123
SEM cells [5], 15.4 µM	108	125	93
SEM cells [5], 46.1 µM	105	113	99.1

AUC of viability dose-response curve
Conditions	HPLM + 10% dialyzed FBS	RPMI 5 mM glucose + 10% FBS	RPMI 5 mM glucose + 10% dialyzed FBS
NOMO1 [1]	471	476	466
P12-Ichikawa [2]	469	466	471

N=C(N)NC(=N)NCCc1ccccc1
AUC of viability dose-response curve
Conditions	NOMO1 [1]	P12-Ichikawa [2]	SEM cells [3]
HPLM + 10% dialyzed FBS	464	450	465
RPMI 5 mM glucose + 10% FBS	456	440	461
RPMI 5 mM glucose + 10% dialyzed FBS	455	438	444

C[C@]12CCC3c4ccc(O)cc4CCC3C1CCC2=O (stereo partly drawn)
cell viability [%]
Conditions	NOMO1 [4]	P12-Ichikawa [6]	SEM cells [5]
HPLM + 10% dialyzed FBS, 0.000781 µM	102	92	70.1
HPLM + 10% dialyzed FBS, 0.00234 µM	102	95.3	81.6
HPLM + 10% dialyzed FBS, 0.00702 µM	106	101	88.8
HPLM + 10% dialyzed FBS, 0.0211 µM	103	98.9	84.5
HPLM + 10% dialyzed FBS, 0.0632 µM	107	102	91.4
HPLM + 10% dialyzed FBS, 0.19 µM	91.9	97.9	73.6
HPLM + 10% dialyzed FBS, 0.569 µM	86.2	84.6	62.2
HPLM + 10% dialyzed FBS, 1.71 µM	81.6	94	77.8
HPLM + 10% dialyzed FBS, 5.12 µM	93	90.2	71.7
HPLM + 10% dialyzed FBS, 15.4 µM	78.2	73.7	42.2
HPLM + 10% dialyzed FBS, 46.1 µM	79.9	83.9	58.9
RPMI 5 mM glucose + 10% FBS, 0.000781 µM	92.2	88.2	94
RPMI 5 mM glucose + 10% FBS, 0.00234 µM	91.7	95.4	92.3
RPMI 5 mM glucose + 10% FBS, 0.00702 µM	92.3	96.8	96.3
RPMI 5 mM glucose + 10% FBS, 0.0211 µM	85.7	103	104
RPMI 5 mM glucose + 10% FBS, 0.0632 µM	87.7	102	88.9
RPMI 5 mM glucose + 10% FBS, 0.19 µM	88.2	100	106
RPMI 5 mM glucose + 10% FBS, 0.569 µM	92.4	98.8	82
RPMI 5 mM glucose + 10% FBS, 1.71 µM	90.8	95.5	80.7
RPMI 5 mM glucose + 10% FBS, 5.12 µM	96.1	87.4	81.2
RPMI 5 mM glucose + 10% FBS, 15.4 µM	76	72.6	64.6
RPMI 5 mM glucose + 10% FBS, 46.1 µM	79.6	83.9	85
RPMI 5 mM glucose + 10% dialyzed FBS, 0.000781 µM	82.1	86.9	103
RPMI 5 mM glucose + 10% dialyzed FBS, 0.00234 µM	90.5	93.6	95.4
RPMI 5 mM glucose + 10% dialyzed FBS, 0.00702 µM	91.7	86.2	98.4
RPMI 5 mM glucose + 10% dialyzed FBS, 0.0211 µM	92.8	87	103
RPMI 5 mM glucose + 10% dialyzed FBS, 0.0632 µM	96.4	87.7	116
RPMI 5 mM glucose + 10% dialyzed FBS, 0.19 µM	86.5	88.4	99.6
RPMI 5 mM glucose + 10% dialyzed FBS, 0.569 µM	86.1	97.9	80.7
RPMI 5 mM glucose + 10% dialyzed FBS, 1.71 µM	84.4	80.7	82.8
RPMI 5 mM glucose + 10% dialyzed FBS, 5.12 µM	89	72.8	93.2
RPMI 5 mM glucose + 10% dialyzed FBS, 15.4 µM	88.6	54.4	35.6
RPMI 5 mM glucose + 10% dialyzed FBS, 46.1 µM	81.1	66.4	71.4

AUC of viability dose-response curve
Conditions	HPLM + 10% dialyzed FBS	RPMI 5 mM glucose + 10% FBS	RPMI 5 mM glucose + 10% dialyzed FBS
NOMO1 [1]	429	424	420
P12-Ichikawa [2]	441	447	395
